In article PMC9890180, “Structural diversity-guided optimization of carbazole derivatives as potential cytotoxic agents” (Frontiers in Chemistry, 2023):
Read-outs that look alike come from different tables or passages of the source.

Legend:
A875 (human melanoma) [1] = system: A875 (human melanoma)
Experimental: (§1) The in vitro cytotoxicity of these carbazole derivatives against human melanoma (A875), human gastric adenocarcinoma cells (7901), and a subclone of African green monkey kidney cell line MA-104 (MARC145) cell lines was evaluated using the MTT assay. Briefly, A875, 7901, and MARC145 cells were seeded at 2 × 10^4 cells per well in 96-well plates and grown to subconfluence. After removal of the growth medium, six serial dilutions of each tested compound in 200 µL test medium were added. Plates were incubated at 37°C in a humidified atmosphere containing 5% CO2. After 72 h of exposure, the culture medium was removed and 30 µL of the MTT solution (5 mg/mL in PBS) was added to each well. The plate was further incubated for 4 h to allow MTT formazan formation. To dissolve the resulting MTT formazan, 50 µL of DMSO was added to each well, followed by thorough mixing with a microplate shaker. Absorbance at 570 nm was measured on a microplate reader (Thermo Scientific, MK3). All data were analyzed with SPSS software, and the 50% inhibitory concentrations (IC50) of each compound for the different cell lines were determined. All assays were performed in triplicate on three independent experiments.

[2] = system: 7901 (human gastric adenocarcinoma cells); assay: In vitro cytotoxicity MTT assay, 7901 cells; conditions: for IC50 / inhibition at 40 µg/mL: Homo sapiens; for inhibition at 40 µg/mL: read-out: in vitro inhibition rate on 7901
Experimental: as §1

[3] = system: 7901 (human gastric adenocarcinoma cells)
Experimental: as §1

A875 (human melanoma) [4] = assay: In vitro cytotoxicity MTT assay, A875 cells; conditions: for IC50 / inhibition at 40 µg/mL: Homo sapiens; for inhibition at 40 µg/mL: A875, read-out: in vitro inhibition rate on A875
Experimental: as §1

[5] = system: MARC145 (a subclone of African green monkey kidney cell line MA-104)
Experimental: as §1

[6] = system: 7901, A875 and MARC145 cell lines; assay: In vitro cytotoxicity MTT assay, overall rating over the tested cell lines; format: cell-based
Experimental: The relationship between concentration and inhibition rate is the key to whether a potential compound can be use as potential medicinal agents. It is very important to maintain good activity at low concentration. Based on the preliminary screening data, in order to verify the effect of concentration on the potential cytotoxic activities for all compounds, the inhibition activity data of the compounds at different concentrations were detected using the same method. All experiments were carried out on three kinds of cell lines with six concentrations of 40, 20, 10, 5, 1, and 0.5 μg/mL. The inhibition activities for highly potential compounds 7b, 11a, 11b, 14a, and 14b were described in Figure 4.

[7] = In vitro cytotoxicity MTT assay, MARC145 cells; conditions: African green monkey, MARC145 cells (subclone of kidney cell line MA-104)
Experimental: as §1

[8] = system: MARC145 (a subclone of African green monkey kidney cell line MA-104); assay: In vitro cytotoxicity MTT assay, MARC145 cells; conditions: preliminary screening, 40 μg/mL
Experimental: as §1

[9] = system: MARC145 (a subclone of African green monkey kidney cell line MA-104); set-up: method as in Huang et al., 2021; conditions: previous work; ref Huang et al., 2021; cited from earlier work
A875 (human melanoma) [10] = system: A875 (human melanoma); set-up: method as in Huang et al., 2021; conditions: previous work; ref Huang et al., 2021; read-out: IC50 against A875; cited from earlier work
[11] = 72 h, read-out: In vitro cytotoxicity IC50, 7901
[12] = A875, 72 h, read-out: In vitro cytotoxicity IC50, A875
[13] = A875, read-out: A875 IC50 (Figure 5)

Molecule | Inhibitory activity on tested cells, in words [6] | IC50 [2, 11] [µM] | IC50 (A875 (human melanoma) [4]; [12]) [µM] | IC50 at 72 h [7] [µM] | melting point [°C] | also measured
2-(6-Chloro-9H-carbazol-2-yl)-N-(2-((dimethylphosphoryl)amino)phenyl)propanamide [Compound 11b] | good inhibition activities on all tested cells |  |  |  |  | IC50 (A875 (human melanoma) [1]): 33.6 ± 9.48 µM; in vitro inhibition rate on 7901 ([2]; concentration of 40 μg/mL): > 70%; IC50 [3]: 20.6 ± 3.3 µM; in vitro inhibition rate on A875 (A875 (human melanoma) [4]; concentration of 40 μg/mL): > 70%; IC50 [5]: 17.3 ± 7.25 µM
O=c1[nH]cc(F)c(=O)[nH]1 [Compound 5-FU, 5-fluorouracil, reference compound] |  | 63.5 ± 4.92 | 80.1 ± 6.61 | 86.3 ± 8.3 |  | 
Cc1c(C(=O)Nc2ccc(S(=O)(=O)Nc3ccccc3Oc3ccccc3)cc2)ccc2c1[nH]c1ccccc12 [Compound 7a, 1-Methyl-N-(4-(N-(2-phenoxyphenyl)sulfamoyl)phenyl)-9H-carbazole-2-carboxamide] |  | 64.7 ± 15.1 | 33.5 ± 1.63 | 51.5 ± 9.24 | 78 | 
Cc1c(C(=O)Nc2ccc(S(=O)(=O)Nc3ccc(Cl)nc3)cc2)ccc2c1[nH]c1ccccc12 [Compound 7b, N-(4-(N-(6-Chloropyridin-3-yl)sulfamoyl)phenyl)-1-methyl-9H-carbazole-2-carboxamide] | moderate inhibitory activity | 58.1 ± 11.3 | 23 ± 16.9 | 58.9 ± 16.7 | 93 | inhibition at 40 µg/mL [2]: > 70%; inhibition at 40 µg/mL (A875 (human melanoma) [4]): > 70%; Toxicity to normal cells MARC-145 compared with cancer cells, in words [8]: less toxicity to normal cells MARC-145 than cancer cells
Cc1c(C(=O)NN(C(=O)c2ccccc2)C(C)(C)C)ccc2c1[nH]c1ccccc12 [Compound 7c, N'-Benzoyl-N'-(tert-butyl)-1-methyl-9H-carbazole-2-carbohydrazide] |  |  | > 40 | 58.4 ± 31.6 | 212 | 
Cc1ccc(S(=O)(=O)N(NC(=O)c2ccc3c([nH]c4ccccc43)c2C)C(C)(C)C)cc1 [Compound 7d, N-(tert-Butyl)-4-methyl-N'-(1-methyl-9H-carbazole-2-carbonyl)benzenesulfonohydrazide] | decreases significantly | 34.5 ± 9.9 | > 40 | 18.7 ± 4.16 | 97 | 
Cc1c(C(=O)NCC(=O)c2ccccc2)ccc2c1[nH]c1ccccc12 [Compound 7e, 1-Methyl-N-(2-oxo-2-phenylethyl)-9H-carbazole-2-carboxamide] |  |  | > 40 | 62.6 ± 28.2 | 153 | 
CC(C(=O)Nc1ccccc1NS(C)(=O)=O)c1ccc2c(c1)[nH]c1ccc(Cl)cc12 (stereo not drawn) [Compound 11a, 2-(6-Chloro-9H-carbazol-2-yl)-N-(2-(methylsulfonamido)phenyl)propanamide] | good inhibition activities on all tested cells | 21.9 ± 3.05 | 36.7 ± 2.96 | 22.9 ± 14.3 | 163 | inhibition at 40 µg/mL [2]: > 70%; inhibition at 40 µg/mL (A875 (human melanoma) [4]): > 70%; Toxicity to normal cells MARC-145 compared with cancer cells, in words [8]: less toxicity to normal cells MARC-145 than cancer cells
Cc1ccc(NNC(=O)C(C)c2ccc3c(c2)[nH]c2ccc(Cl)cc23)cc1 (stereo not drawn) [Compound 11c, 2-(6-Chloro-9H-carbazol-2-yl)-N'-(p-tolyl)propanehydrazide] |  |  | > 40 | 64 ± 20.1 | 188 | 
CC(C(=O)NCCS(C)(=O)=O)c1ccc2c(c1)[nH]c1ccc(Cl)cc12 (stereo not drawn) [Compound 11d, 2-(6-Chloro-9H-carbazol-2-yl)-N-(2-(methylsulfonyl)ethyl)propanamide] | lost activity |  | > 40 | > 40 | 149 | 
CC(C(=O)Nc1ccc(S(=O)(=O)Nc2ncccn2)cc1)c1ccc2c(c1)[nH]c1ccc(Cl)cc12 (stereo not drawn) [Compound 11e, 2-(6-Chloro-9H-carbazol-2-yl)-N-(4-(N-(pyrimidin-2-yl)sulfamoyl)phenyl)propanamide] |  |  | > 40 | > 40 | 157 | 
COc1cccc(C=NNC(=O)C(C)c2ccc3c(c2)[nH]c2ccc(Cl)cc23)c1O (stereo not drawn) [Compound 14a, 2-(6-Chloro-9H-carbazol-2-yl)-N'-(2-hydroxy-3-methoxybenzylidene)propanehydrazide] | good inhibition activities on all tested cells | 11.8 ± 1.26 | 9.77 ± 8.32 | 7.47 ± 4.15 | 217 | inhibition at 40 µg/mL [2]: > 70%; IC50 (A875 (human melanoma) [4]; [13]): 9.77 ± 8.33 µM; inhibition at 40 µg/mL (A875 (human melanoma) [4]): > 70%; Toxicity to normal cells MARC-145 compared with cancer cells, in words [8]: less toxicity to normal cells MARC-145 than cancer cells; Inhibition activity at low concentration, in words ([6]; concentration of 5 μg/mL): good activity
CC(C(=O)NN=CC=Cc1ccc(Cl)cc1)c1ccc2c(c1)[nH]c1ccc(Cl)cc12 (stereo not drawn) [Compound 14b, 2-(6-Chloro-9H-carbazol-2-yl)-N'-(3-(4-chlorophenyl)allylidene)propanehydrazide] | good inhibition activities on all tested cells | 18.9 ± 2.64 | 45.6 ± 30.6 | 19.6 ± 6.94 | 186 | inhibition at 40 µg/mL [2]: > 70%; inhibition at 40 µg/mL (A875 (human melanoma) [4]): > 70%
CC(C(=O)NN=Cc1ccc2c(c1)OCO2)c1ccc2c(c1)[nH]c1ccc(Cl)cc12 (stereo not drawn) [Compound 14c, N'-(Benzo[d][1,3]dioxol-5-ylmethylene)-2-(6-chloro-9H-carbazol-2-yl)propanehydrazide] |  |  | > 40 | > 40 | 240 | 
CC(C(=O)NN=Cc1c[nH]c2ccccc12)c1ccc2c(c1)[nH]c1ccc(Cl)cc12 (stereo not drawn) [Compound 14d, N'-((1H-Indol-3-yl)methylene)-2-(6-chloro-9H-carbazol-2-yl)propanehydrazide] |  |  | 37.6 ± 8.15 | 42.4 ± 4.58 | 209 | 
COc1cc(C=NNC(=O)C(C)c2ccc3c(c2)[nH]c2ccc(Cl)cc23)ccc1O (stereo not drawn) [Compound 14e, 2-(6-Chloro-9H-carbazol-2-yl)-N'-(4-hydroxy-3-methoxybenzylidene)propanehydrazide] | almost lost its activity |  | > 40 | > 40 | 239 | IC50 ([2]; read-out: 7901 IC50 (Figure 5)): > 100 µM; IC50 (A875 (human melanoma) [4]; [13]): > 100 µM
CC(C(=O)NN=Cc1ccc(Cl)cc1)c1ccc2c(c1)[nH]c1ccc(Cl)cc12 (stereo not drawn) [Compound 14f, 2-(6-Chloro-9H-carbazol-2-yl)-N'-(4-chlorobenzylidene)propanehydrazide] |  |  | > 40 | > 40 | 218 | IC50 ([2]; read-out: 7901 IC50 (Figure 5)): > 100 µM; IC50 (A875 (human melanoma) [4]; [13]): > 100 µM
CC(C(=O)NN=Cc1ccc(Cl)cc1Cl)c1ccc2c(c1)[nH]c1ccc(Cl)cc12 (stereo not drawn) [Compound 14g, 2-(6-Chloro-9H-carbazol-2-yl)-N'-(2,4-dichlorobenzylidene)propanehydrazide] |  | 38.8 ± 2.74 | > 40 | 96.3 ± 63.3 | 241 | 
COc1cccc(/C=N/NC(=O)c2ccc3c([nH]c4ccccc43)c2C)c1O [Compound 2021-7e] |  |  |  |  |  | IC50 [9]: 26.6 µM; IC50 (A875 (human melanoma) [10]): 4.15 µM
